The record followed here is paper PMC4942819 (Scientific Reports, 2016).

Each structure is given as a SMILES string. ≈ marks a conversion by molar mass, not a printed value.

For the experiment, the system named is H37Rv. As to the kind of experiment: microbe, parasite or virus in culture. The experiment is classed as cell-based, Mycobacterium tuberculosis. As to conditions: for MIC: Mycobacterium tuberculosis, H37RV, read-out: MIC, strain H37Rv; for MIC, strain H37Rv: Table 2 prints no unit, test range in method b43 in μg/mL.

`CO[C@H]1/C=C/O[C@@]2(C)Oc3c(C)c(O)c4c(O)c(c(/C=N/N5CCN(C)CC5)c(O)c4c3C2=O)NC(=O)/C(C)=C\C=C\[C@H](C)[C@H](O)[C@@H](C)[C@@H](O)[C@@H](C)[C@H](OC(C)=O)[C@@H]1C` [RMP, rifampicin]: the MIC is less than 0.03 mg/L.
Still for that read-out and setting: for `CC1COc2c(N3CCN(C)CC3)c(F)cc3c(=O)c(C(=O)O)cn1c23` (stereo not shown) [OFLX, ofloxacin] the value was 0.5 mg/L (≈ 1.38 µM); for `[H]/N=C(/N)N[C@H]1[C@H](O)[C@@H](O)[C@H](O[C@@H]2O[C@@H](C)[C@](O)(C=O)[C@H]2O[C@@H]2O[C@@H](CO)[C@H](O)[C@@H](O)[C@@H]2NC)[C@@H](N/C(N)=N\[H])[C@@H]1O` [SM, streptomycin], 1 mg/L (≈ 1.72 µM).
Consider `O=[N+]([O-])c1cc(C(F)(F)F)cc2c(=S)nc(N3CCC4(CC3)OCCO4)sc12` [SKLB-TB1001, 8-nitro-2-(1,4-dioxa-8-azaspiro[4.5]decan-8-yl)-6-(trifluoromethyl)-4H-benzo[e][1,3]thiazine-4-thione], for which the MIC was less than 0.0156 mg/L.
For `C[C@H]1COc2c(N3CCN(C)CC3)c(F)cc3c(=O)c(C(=O)O)cn1c23` [LVFX, levo-ofloxacin], the “MIC, strain H37Rv” value was 0.25 mg/L (≈ 0.692 µM).
Turning to `NCC[C@H](O)C(=O)N[C@@H]1C[C@H](N)[C@@H](O[C@H]2O[C@H](CN)[C@@H](O)[C@H](O)[C@H]2O)[C@H](O)[C@H]1O[C@H]1O[C@H](CO)[C@@H](O)[C@H](N)[C@H]1O` [AMK, amikacin], the MIC was determined as 0.5 mg/L (≈ 0.854 µM).
As to `NC[C@H]1O[C@H](O[C@H]2[C@H](O)[C@@H](O[C@H]3O[C@H](CO)[C@@H](O)[C@H](N)[C@H]3O)[C@H](N)C[C@@H]2N)[C@H](O)[C@@H](O)[C@@H]1O` [KM, kanamycin], the “MIC, strain H37Rv” value was determined as 1 mg/L (≈ 2.06 µM).
On to `COc1c(N2C[C@@H]3CCCN[C@@H]3C2)c(F)cc2c(=O)c(C(=O)O)cn(C3CC3)c12` [MOX, moxifloxacin], for which the MIC is 0.06 mg/L (≈ 0.149 µM).
With `NNC(=O)c1ccncc1` [INH, isoniazid], the MIC was 0.03 mg/L (≈ 0.219 µM).
Turning to `CC[C@@H](CO)NCCN[C@@H](CC)CO` [EMB, ethambutol], the MIC is 1 mg/L (≈ 4.89 µM).
